Toxic doses and inconclusive results are not listed.

This is an account of results in PubChem BioAssay AID248 (DTP/NCI, 2004).

This assay deals with L1210 leukemia ip in BDF1 mice, survival T/C. Briefly: NCI In Vivo Anticancer Drug Screen. Data for tumor model L1210 Leukemia (intraperitoneal) in B6D2F1 (BDF1) mice. Particulars: endpoint: mean survival time, higher = longer survival. The gist of the method:
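Antitumor effect is assessed in tumor-bearing animals. Survival in the compound arm is compared with a vehicle-dosed control arm and expressed as their quotient.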

The mark [1] stands for this setting: dose: 100.0 mg/kg/injection, schedule: Q04DX003 (ip), vehicle: saline with Tween-80.
Setting [2] is: dose: 200.0 mg/kg/injection, schedule: Q04DX003 (ip), vehicle: saline with Tween-80.
Where [3] appears, read: dose: 400.0 mg/kg/injection, schedule: Q04DX003 (ip), vehicle: saline with Tween-80.
[4] abbreviates: dose: 50.0 mg/kg/injection, schedule: Q01DX001 (ip), vehicle: saline.
The mark [5] stands for this setting: dose: 100.0 mg/kg/injection, schedule: Q01DX001 (ip), vehicle: saline.
Where [6] appears, read: dose: 200.0 mg/kg/injection, schedule: Q01DX001 (ip), vehicle: saline.
Where [7] appears, read: dose: 400.0 mg/kg/injection, schedule: Q01DX001 (ip), vehicle: saline.
The mark [8] stands for this setting: dose: 100.0 mg/kg/injection, schedule: Q01DX009 (ip), vehicle: saline.
[9] abbreviates: dose: 100.0 mg/kg/injection, schedule: Q04DX003 (ip), vehicle: saline.
Where [10] appears, read: dose: 200.0 mg/kg/injection, schedule: Q01DX009 (ip), vehicle: saline.
The mark [11] stands for this setting: dose: 200.0 mg/kg/injection, schedule: Q04DX003 (ip), vehicle: saline.
[12] abbreviates: dose: 400.0 mg/kg/injection, schedule: Q01DX009 (ip), vehicle: saline.
[13] abbreviates: dose: 400.0 mg/kg/injection, schedule: Q04DX003 (ip), vehicle: saline.
The mark [14] stands for this setting: dose: 50.0 mg/kg/injection, schedule: Q01DX009 (ip), vehicle: saline.

In the case of `Nc1nc(N)c2nc(CN(CCO)c3ccc(C(=O)NC(CCC(=O)O)C(=O)O)cc3)cnc2n1` (centres undefined), the T/C was 151 % of control (dose: 1.0 mg/kg/injection, schedule: Q01DX009 (ip), vehicle: sodium bicarbonate); 174 % of control (dose: 2.0 mg/kg/injection, schedule: Q01DX009 (ip), vehicle: Klucel (hydroxypropylcellulose) (HPC)); 172 % of control (dose: 2.0 mg/kg/injection, schedule: Q01DX009 (ip), vehicle: sodium bicarbonate); 160 % of control (dose: 4.0 mg/kg/injection, schedule: Q01DX009 (ip), vehicle: Klucel (hydroxypropylcellulose) (HPC)); 178 % of control (dose: 4.0 mg/kg/injection, schedule: Q01DX009 (ip), vehicle: sodium bicarbonate); 151 % of control (dose: 8.0 mg/kg/injection, schedule: Q01DX009 (ip), vehicle: Klucel (hydroxypropylcellulose) (HPC)). Moreover, the T/C by setting is: (dose: 8.0 mg/kg/injection, schedule: Q01DX009 (ip), vehicle: sodium bicarbonate) 113 % of control; (dose: 16.0 mg/kg/injection, schedule: Q01DX009 (ip), vehicle: Klucel (hydroxypropylcellulose) (HPC)) 108 % of control; (dose: 16.0 mg/kg/injection, schedule: Q01DX009 (ip), vehicle: sodium bicarbonate) 89 % of control; (dose: 32.0 mg/kg/injection, schedule: Q01DX009 (ip), vehicle: Klucel (hydroxypropylcellulose) (HPC)) 96 % of control.

Consider `CCCCOc1ccc(NC(=O)N(C)C)cn1`, for which the T/C is 94 % of control under setting [1], 96 % of control under setting [2] and 87 % of control under setting [3].

As for `Cc1ccc2[nH]c3c(c2c1)CCCC3`, the T/C by setting is: under setting [4], 101 % of control; under setting [5], 101 % of control; under setting [6], 107 % of control; under setting [7], 101 % of control.

For `O=C(O)C1C2CCC1C(O)C2` (centres undefined), the T/C is 107 % of control (dose: 100.0 mg/kg/injection, schedule: Q01DX001 (ip), vehicle: saline with Tween-80); 94 % of control (dose: 200.0 mg/kg/injection, schedule: Q01DX001 (ip), vehicle: saline with Tween-80); 97 % of control (dose: 400.0 mg/kg/injection, schedule: Q01DX001 (ip), vehicle: saline with Tween-80).

For the molecule `NC(CCC(=O)NC(CSCCC(=O)c1ccccc1)C(=O)NCC(=O)O)C(=O)O` (centres undefined), the T/C was 96 % of control (dose: 25.0 mg/kg/injection, schedule: Q01DX009 (ip), vehicle: water); 91 % of control (dose: 50.0 mg/kg/injection, schedule: Q01DX009 (ip), vehicle: water); 94 % of control (dose: 100.0 mg/kg/injection, schedule: Q01DX009 (ip), vehicle: water); 92 % of control (dose: 200.0 mg/kg/injection, schedule: Q01DX009 (ip), vehicle: water); 97 % of control (dose: 400.0 mg/kg/injection, schedule: Q01DX009 (ip), vehicle: water).

As for `CC1(C)OCC(C2OC3OC(C)(C)OC3C2OS(C)(=O)=O)O1` (centres undefined), the T/C runs as follows: (dose: 100.0 mg/kg/injection, schedule: Q01DX001 (ip), vehicle: carboxymethylcellulose (CMC)) 101 % of control; (dose: 200.0 mg/kg/injection, schedule: Q01DX001 (ip), vehicle: carboxymethylcellulose (CMC)) 103 % of control; (dose: 400.0 mg/kg/injection, schedule: Q01DX001 (ip), vehicle: carboxymethylcellulose (CMC)) 97 % of control.

For the molecule `CCOC(=O)c1ccc(NC(=O)Oc2cccc(NC(C)=O)c2)cc1`, the T/C was 92 % of control (dose: 100.0 mg/kg/injection, schedule: Q01DX009 (ip), vehicle: Klucel (hydroxypropylcellulose) (HPC)); 95 % of control (dose: 200.0 mg/kg/injection, schedule: Q01DX009 (ip), vehicle: Klucel (hydroxypropylcellulose) (HPC)); 92 % of control (dose: 400.0 mg/kg/injection, schedule: Q01DX009 (ip), vehicle: Klucel (hydroxypropylcellulose) (HPC)).

Turning to `COC(=O)C(C)NCc1ccccc1` (centres undefined), the T/C is 95 % of control under setting [8]; 107 % of control under setting [9]; 100 % of control under setting [10]; 107 % of control under setting [11]; 100 % of control under setting [12]; 102 % of control under setting [13].

Take `COc1ccc(/C=C/C(=N\O)c2ccc(OC)c(OC)c2)cc1OC`: the T/C reads like this: (dose: 25.0 mg/kg/injection, schedule: Q01DX009 (ip), vehicle: saline) 86 % of control; under setting [14], 98 % of control; under setting [8], 98 % of control; under setting [10], 100 % of control; under setting [12], 98 % of control.

For the molecule `C/C(CCO)=N\NC(N)=S`, the T/C was 98 % of control under setting [4]; 98 % of control under setting [5]; 100 % of control under setting [9]; 92 % of control under setting [6]; 90 % of control under setting [11]; 101 % of control under setting [7]. The T/C under setting [13] was 88 % of control.

In the case of `O=[N+]([O-])c1ccc2c(c1)-c1ccccc1C2Cl` (centres undefined), the T/C was 94 % of control (dose: 100.0 mg/kg/injection, schedule: Q01DX005 (ip), vehicle: Klucel (hydroxypropylcellulose) (HPC)); 111 % of control (dose: 100.0 mg/kg/injection, schedule: Q04DX002 (ip), vehicle: Klucel (hydroxypropylcellulose) (HPC)); 91 % of control (dose: 200.0 mg/kg/injection, schedule: Q01DX005 (ip), vehicle: Klucel (hydroxypropylcellulose) (HPC)); 101 % of control (dose: 200.0 mg/kg/injection, schedule: Q04DX002 (ip), vehicle: Klucel (hydroxypropylcellulose) (HPC)); 88 % of control (dose: 400.0 mg/kg/injection, schedule: Q01DX005 (ip), vehicle: Klucel (hydroxypropylcellulose) (HPC)); 96 % of control (dose: 400.0 mg/kg/injection, schedule: Q04DX002 (ip), vehicle: Klucel (hydroxypropylcellulose) (HPC)).

For `CCCC(F)C(=O)OCC` (centres undefined), the T/C (dose: 100.0 mg/kg/injection, schedule: Q01DX009 (ip), vehicle: saline with Tween-80) is 108 % of control; the T/C under setting [1] is 98 % of control; the T/C (dose: 200.0 mg/kg/injection, schedule: Q01DX009 (ip), vehicle: saline with Tween-80) is 94 % of control; the T/C under setting [2] was 96 % of control; the T/C (dose: 400.0 mg/kg/injection, schedule: Q01DX009 (ip), vehicle: saline with Tween-80) was 87 % of control; the T/C under setting [3] was 106 % of control.

Turning to `C[C@]12CC[C@@H]3c4ccc(OC(=O)Cc5ccc(N(CCCl)CCCl)cc5)cc4CC[C@H]3[C@@H]1CC[C@@H]2OC(=O)Cc1ccc(N(CCCl)CCCl)cc1`, the T/C was 97 % of control (dose: 100.0 mg/kg/injection, schedule: Q01DX001 (sc), vehicle: steriod suspending solution); 102 % of control (dose: 200.0 mg/kg/injection, schedule: Q01DX001 (sc), vehicle: steriod suspending solution); 102 % of control (dose: 400.0 mg/kg/injection, schedule: Q01DX001 (sc), vehicle: steriod suspending solution).

As for `O=C(CCl)Nc1ccc(C(=O)O)cc1`, the T/C (dose: 3.0 mg/kg/injection, schedule: Q01DX Z (ip), vehicle: carboxymethylcellulose (CMC)) was 96 % of control; the T/C (dose: 7.0 mg/kg/injection, schedule: Q01DX Z (ip), vehicle: carboxymethylcellulose (CMC)) is 102 % of control; the T/C (dose: 15.0 mg/kg/injection, schedule: Q01DX Z (ip), vehicle: carboxymethylcellulose (CMC)) was 88 % of control; the T/C (dose: 30.0 mg/kg/injection, schedule: Q01DX Z (ip), vehicle: carboxymethylcellulose (CMC)) is 104 % of control.

`NC(=O)/C=C\C(N)=O`: the T/C under setting [14] was 103 % of control; the T/C (dose: 50.0 mg/kg/injection, schedule: Q04DX003 (ip), vehicle: saline) was 100 % of control; the T/C under setting [8] is 99 % of control; the T/C under setting [9] was 104 % of control; the T/C under setting [11] is 99 % of control.

Take `CCCCCCCN(CCCCCCC)C(C)=O`: the T/C is, setting by setting: (dose: 100.0 mg/kg/injection, schedule: Q01DX001 (ip), vehicle: other) 93 % of control; (dose: 200.0 mg/kg/injection, schedule: Q01DX001 (ip), vehicle: other) 93 % of control; (dose: 400.0 mg/kg/injection, schedule: Q01DX001 (ip), vehicle: other) 93 % of control.

Take `CCC(Cl)(Cl)[N+](=O)[O-]`: the T/C (dose: 100.0 mg/kg/injection, schedule: Q04DX002 (ip), vehicle: saline with Tween-80) was 98 % of control; the T/C (dose: 200.0 mg/kg/injection, schedule: Q04DX002 (ip), vehicle: saline with Tween-80) is 98 % of control; the T/C (dose: 400.0 mg/kg/injection, schedule: Q04DX002 (ip), vehicle: saline with Tween-80) was 102 % of control.
